Source: patent US20230210896A9, “METHOD FOR T CELL ACTIVATION FOR CANCER TREATMENT” (GOOD T CELLS, INC., priority 2019, published 2023)

Test system: CD8-expressing T cells
Assay: ELISPOT of IFN-γ secretion in T cells activated by dendritic cells loaded with LMP2a epitope groups
Format: cell-based, human
Conditions: DC:CD8 T cells 1:10, 18 hours
[1] = healthy human donor N5 (N5-1 and N5-2, repeated twice), FIGS. 1 and 2
[2] = healthy human donor N15, FIG. 4

Row | Substance | expression of IFN-γ in T cells (ELISPOT) [1] | expression of IFN-γ in T cells (ELISPOT) (healthy human donor N9, FIG. 3) | expression of IFN-γ in T cells (ELISPOT) [2]
1 | 3 (MGAGPPSPGGDPDGD; LMP2a epitope) [compound 3] | increased expression of IFN-γ | increased expression of IFN-γ | increased expression of IFN-γ
2 | 5 (GGDPDGDDGGNNSQY; LMP2a epitope) [compound 5] | – | – | increased expression of IFN-γ
3 | 8 (SQYPSASGSYGNTPT; LMP2a epitope) [compound 8] | – | increased expression of IFN-γ | increased expression of IFN-γ
4 | 9 (SASGSYGNTPTPPND; LMP2a epitope) [compound 9] | increased expression of IFN-γ | – | increased expression of IFN-γ
5 | 12 (PNDEERESNEEPPPP; LMP2a epitope) [compound 12] | increased expression of IFN-γ | – | –
6 | 15 (PPPYEDLDWGNGDRH; LMP2a epitope) [compound 15] | increased expression of IFN-γ | increased expression of IFN-γ | increased expression of IFN-γ
7 | 16 (EDLDWGNGDRHSDYQ; LMP2a epitope) [compound 16] | – | increased expression of IFN-γ | –
8 | 18 (DRHSDYQPLGNQDPS; LMP2a epitope) [compound 18] | increased expression of IFN-γ | – | –
9 | 19 (DYQPLGNQDPSLYLG; LMP2a epitope) [compound 19] | – | increased expression of IFN-γ | –
10 | 20 (LGNQDPSLYLGLQHD; LMP2a epitope) [compound 20] | – | increased expression of IFN-γ | –
